Data from patent US7972793B2, “Methods and compositions for the treatment of psychotic disorders through the identification of the SULT4A1-1 haplotype” (Suregene, LLC, priority 2009, dated 2011).
Like-named read-outs stand apart in the source and are kept apart here. Marks after values point to notes of the source that are not given here.

Tests used:
[1] = system: CATIE African American schizophrenia patients; test: CATIE drug response: change in total PANSS (LOCF), segmented by SULT4A1-1 status, African Americans; type: in vivo, human
Procedure: The design of the CATIE study has been described in detail by others (Lieberman et al., 2005; Stroup et al., 2003). […] A total of 738 subjects consented to provide DNA for genetic study. […] Retrospective genetic analyses, judged to be exempt from human studies requirements by an IRB, were conducted in the current study. All tested patients were studied using well established clinical endpoints comparing baseline, intermediate, and last observation carried forward (LOCF) for the PANSS scores using CATIE data. […] To remove time on drug as a variable for the CATIE trial, analysis was limited to only those patients who were randomized to a different drug following the initial washout period (drug switchers).

[2] = system: CATIE Caucasian schizophrenia patients; test: Time to discontinuation for all causes in the CATIE study; type: in vivo, human; settings: SULT4A1-1 Negative
Text: The primary endpoint for the CATIE study was time to discontinuation for all causes (Lieberman et al., 2005). Thus the inventors evaluated the effect of SULT41-1 status on this important parameter.

[3] = system: CATIE Phase I non-responders; settings: CATIE Phase II, LOCF; for Responders (number): decrease PANSS ≧ 20%
[4] = system: patients, populations not segmented by SULT4A1-1 status; settings: meta-analysis, Leucht et al. (2009); negative = greater reduction in PANSS; cited from earlier work
[5] = system: patients, unsegmented populations; settings: Meta-analysis, Leucht et al. (2009); cited from earlier work
[6] = system: CATIE Caucasian subjects; test: Rate of hospitalization due to exacerbation of psychosis in CATIE by SULT4A1-1 status; type: in vivo, human; settings: CATIE Phases 1, 2 and/or 3
Text: For this analysis, the inventors assigned a dichotomous value (positive or negative) for hospitalization status to subjects in each phase of the trial based on only the first hospitalization event for a given patient in that phase.

[7] = system: CATIE patients; test: Kaplan-Meier survival (no hospitalization event) analysis, SULT4A1-1 negative vs positive; type: in vivo, human; settings: FIG. 8
Procedure: A Kaplan-Meier survival analysis was performed to determine whether there was a difference between the survival (hospitalization) rates for the SULT4A1-1 negative and SULT4A1-1 positive patient populations treated with each of the atypical antipsychotics. Survival plots model the fraction of the population that survived (i.e., no hospitalization event) as a function of time.

[8] = system: CATIE patients with schizophrenia of European ancestry; test: CATIE Phase I percent change of PANSS from baseline (LOCF), linear model with haplotype and drug therapy; type: in vivo, human; settings: Table 18
Text: Genotype and phenotype data for the CATIE trial were recently made available to qualified researchers through The NIMH Center for Collaborative Genetic Studies on Mental Disorders. The inventors evaluated data for 417 CATIE patients with schizophrenia self reported as having exclusively European ancestry. This same patient population was described in a recent study by Sullivan and coworkers, which confirmed that there is no hidden stratification in the sample (Sullivan et al., 2008).
The CATIE clinical data set included baseline PANSS scores based on clinical assessments prior to initiation of the assigned therapy, but following the washout period for any patients previously on antipsychotic medication. Follow up PANSS data for the CATIE trial were collected at each visit as described in detail by others (Stroup et al., 2003). Briefly, the first visit was after one month of treatment, and subsequent visits were at somewhat irregular intervals of approximately three months for up to a total 18 months or until discontinuation of treatment, whichever came first.
For all subsequent analyses, the inventors focused on the single haplotype, designated SULT4A1-1. EM algorithm haplotypes were assigned to each patient using HelixTree software (Version 6.4.1; Golden Helix, Bozeman, Mont.), and each individual was scored as being positive or negative for the presence of the haplotype. The inventors assigned SULT4A1-1 haplotype status to those individuals for which EM algorithm assignment could be made with error probabilities of <1%. This included a total of 395 patients from the CATIE study. With the exception of four of the 395 patients in the CATIE study, SULT4A1-1 haplotype status could be assigned with error probabilities of <1×10-5.
Since follow-up on subjects was not done at uniform time intervals, analysis was done using the last observation for each patient in treatment Phase I of the trial as the measure of response (last observation carried forward, LOCF). Main effect and interaction terms between the SULT4A1-1 haplotype and drug therapy were included in the linear model. A pre-determined set of contrasts for differences in percent change PANSS by haplotype within each drug therapy (three comparisons) and by drug therapy within each haplotype (six comparisons) were evaluated, with adjustment for multiple-comparisons using the step-up false-discovery rate (FDR) controlling procedure (Benjamini and Hochberg, 1995). A sub-analysis omitting those patients who were randomized to the same antipsychotic drug therapy was also conducted. […]

## OCCOCCN1CCN(C2=Nc3ccccc3Sc3ccccc32)CC1 [Quetiapine]
[1]; SULT4A1-1 Negative
  ≦−20% (number of individuals; responders): 9
  ≧−20% (number of individuals; non-responders): 25
[1]; SULT4A1-1 Positive
  ≦−20% (number of individuals; responders): 2
  ≧−20% (number of individuals; non-responders): 4
[2]
  Time to discontinuation, mean time in months: 8.6*** Months
[3]; SULT4A1-1 Negative
  Nonresponders (number): 10
  Responders (number): 1
[3]; SULT4A1-1 Positive
  Nonresponders (number): 1
  Responders (number): 0
[4]
  Effect Size vs. Placebo: −0.42
[5]
  Mean Difference in Total PANSS Score, Olanzapine vs. labelled drug: −3.7
[6]; SULT4A1-1 Positive
  HOSP (number of subjects hospitalized): 1
  HOSP (rate of hospitalization): (2.9%)
[6]; SULT4A1-1 negative
  HOSP (number of subjects hospitalized): 24
  HOSP (rate of hospitalization): (19.5%)
[6]; Unsegmented
  HOSP (number of subjects hospitalized): 25
[7]
  Difference between survival (no hospitalization) rates of SULT4A1-1 negative and SULT4A1-1 positive patients: significant difference
[8]; Complete Sample, SULT4A1-1+ patients, labelled drug vs Risperidone
  Difference in percent change in PANSS score: −1.0%
[8]; Complete Sample, same drug, SULT4A1-1+ vs SULT4A1-1−
  Difference in percent change in PANSS score: −5.4%
[8]; Patients Randomized to a Different Medication, SULT4A1-1+ patients, labelled drug vs Risperidone
  Difference in percent change in PANSS score: −4.6%
[8]; Patients Randomized to a Different Medication, same drug, SULT4A1-1+ vs SULT4A1-1−
  Difference in percent change in PANSS score: −6.8%
